Results published in patent US8642834B2, “Methods for the identification of agents that inhibit mesenchymal-like tumor cells or their formation” (OSI Pharmaceuticals, LLC, priority 2009, dated 2014).

Key:
Format in all cases: cell-based, human
CFPAC-1 cells = assay: MET/EMT reversion experiment (ligand withdrawal); settings: ligand 14 days, then removed; morphology and E-cadherin/vimentin immunoblot
Procedure: Cells were cultured in complete medium with and without ligand for 14 days, during which time the media and ligand treatment was replaced every 3-4 days. 3 Days prior to the first time point (Day 14), cells were trypsinised, counted and seeded into plastic 35 mm dishes at appropriate seeding densities for the first 3 collection time points. 3 Days prior to the last of the 3 collection time points, the procedure was repeated for the second 3 collection time points, and so on until all time points were collected. Ligand was removed from all cultures at Day 14. At the time of harvest, cells were harvested as described in the western blotting section above. All samples were micro-centrifuged and stored at −80° C. until the end of the experiment, at which time all samples were processed for western blotting.

CFPAC1 cells [1] = assay: 2D immunofluorescence of E-cadherin and vimentin; settings: cells treated 7 days with ligand, compared to untreated cells
Procedure: Cells were plated on coverslips and stimulated with ligand the following day (day 0). On day 4, medium and ligands were refreshed. After 7 days, the cells were fixed in 4% paraformaldehyde (EMS#15701)/PBS (Gibco #14190) for 10 minutes at room temperature, and then permeabilized in 0.1% Triton X-100 (Sigma #P1379)/PBS for 10 minutes. Cells were blocked in 3% BSA/PBS for one hour and incubated in primary antibody solution (E-cadherin, Santa Cruz #sc21791 and Vimentin, Chemicon #AB5733 in blocking buffer) for two hours at room temperature. Cells were washed in PBS and incubated in secondary antibody (Invitrogen #A11029 and Chemicon #AP194R) for one hour followed by nuclear counterstain TO-PRO3 (Invitrogen #T3605). Coverslips were mounted on slides with Pro-Long Gold antifade reagent (Invitrogen P36934). Images were captured on a Leica DMRXE microcope with SP2 scanner using Leica Confocal Software.

CFPAC1 cells [2] = assay: Doubling time after ligand treatment; settings: after 7 day ligand treatment, versus untreated
Procedure: Cells were plated and treated with ligand for 7 days. On day 7, cells were counted and re-plated on 6 cm cell culture dishes. On days 3, 5, 7, 10 and 12, cells were trypsinized and counted to determine the total number of cells in the dish, in duplicate. Doubling time was calculated using the multiple time point method on the website www.doubling-time.com.

Substance: HGF: Hepatocyte Growth Factor from Peprotech, used at 100 ng/ml
- Reversal of EMT upon withdrawal of ligand (CFPAC-1 cells): can be reversed
- E-cadherin and vimentin staining (CFPAC1 cells [1]): strong vimentin staining with no E-cadherin
- Effect on doubling time (CFPAC1 cells [2]): did not increase the doubling time
